Measurements reported in patent US20230257396A1, “MACROCYCLES AND THEIR USE” (BLOSSOMHILL THERAPEUTICS, INC., priority 2020, published 2023).

How the values were obtained:
Test in all cases: KINOMEscan kinase binding assay (Eurofins/DiscoveRx), % Ctrl
Settings in all cases: 1 μM
kinases [1] = molecular target: T1, kinases (Homo sapiens, UniProt P00519, F317I)
T1 construct: purchased Eurofins/DiscoveRx; host or cells: E. coli BL21-derived host (T7 phage display) for most kinases; HEK-293 for the rest
T1 sequence (P00519 whole entry F317I): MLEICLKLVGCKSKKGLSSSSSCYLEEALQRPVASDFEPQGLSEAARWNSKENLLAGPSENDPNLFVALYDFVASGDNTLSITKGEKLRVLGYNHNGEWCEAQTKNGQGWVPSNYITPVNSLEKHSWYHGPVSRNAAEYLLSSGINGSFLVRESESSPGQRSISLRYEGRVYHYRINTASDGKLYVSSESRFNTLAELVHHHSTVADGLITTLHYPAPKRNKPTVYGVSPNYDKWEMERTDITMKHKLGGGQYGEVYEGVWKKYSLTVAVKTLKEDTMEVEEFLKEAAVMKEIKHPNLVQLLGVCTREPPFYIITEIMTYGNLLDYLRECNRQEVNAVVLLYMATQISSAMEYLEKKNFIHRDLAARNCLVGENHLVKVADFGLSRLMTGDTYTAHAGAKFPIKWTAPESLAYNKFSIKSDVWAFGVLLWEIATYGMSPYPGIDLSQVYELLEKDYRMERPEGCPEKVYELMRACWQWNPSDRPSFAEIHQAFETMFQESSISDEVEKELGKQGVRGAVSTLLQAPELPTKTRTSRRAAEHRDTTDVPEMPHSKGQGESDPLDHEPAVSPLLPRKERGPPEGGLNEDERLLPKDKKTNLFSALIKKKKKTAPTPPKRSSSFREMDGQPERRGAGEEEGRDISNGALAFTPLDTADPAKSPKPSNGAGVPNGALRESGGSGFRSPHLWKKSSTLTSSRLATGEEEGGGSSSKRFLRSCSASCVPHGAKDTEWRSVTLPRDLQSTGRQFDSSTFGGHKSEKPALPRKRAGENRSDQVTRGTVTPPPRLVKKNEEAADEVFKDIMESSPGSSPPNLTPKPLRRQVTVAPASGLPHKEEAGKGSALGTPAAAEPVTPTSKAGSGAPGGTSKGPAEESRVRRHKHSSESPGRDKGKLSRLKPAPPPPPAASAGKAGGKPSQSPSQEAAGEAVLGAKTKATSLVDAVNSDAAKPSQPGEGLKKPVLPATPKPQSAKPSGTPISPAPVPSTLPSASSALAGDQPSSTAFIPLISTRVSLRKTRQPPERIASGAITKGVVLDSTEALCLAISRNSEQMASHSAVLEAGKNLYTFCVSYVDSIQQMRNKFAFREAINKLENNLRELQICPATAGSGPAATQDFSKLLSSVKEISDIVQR
Outline: (§1)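 Read-out is qPCR of kinase eluted from ligand-coated streptavidin beads after 1 h room-temperature competition with test compound. Values are % Ctrl at the tested concentration, lower meaning tighter binding.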

kinases [2] = molecular target: T2, kinases (Homo sapiens, UniProt P00533)
T2 construct: purchased Eurofins/DiscoveRx; host or cells: E. coli BL21-derived host (T7 phage display) for most kinases; HEK-293 for the rest
Outline: as §1

kinases [3] = molecular target: T3, kinases (Homo sapiens, UniProt P00533, L861Q)
T3 construct: purchased Eurofins/DiscoveRx; host or cells: E. coli BL21-derived host (T7 phage display) for most kinases; HEK-293 for the rest
Outline: as §1

kinases [4] = molecular target: T4, kinases (Homo sapiens, UniProt P07949, V804L)
T4 construct: purchased Eurofins/DiscoveRx; host or cells: E. coli BL21-derived host (T7 phage display) for most kinases; HEK-293 for the rest
T4 sequence (P07949 29-1114 V804L): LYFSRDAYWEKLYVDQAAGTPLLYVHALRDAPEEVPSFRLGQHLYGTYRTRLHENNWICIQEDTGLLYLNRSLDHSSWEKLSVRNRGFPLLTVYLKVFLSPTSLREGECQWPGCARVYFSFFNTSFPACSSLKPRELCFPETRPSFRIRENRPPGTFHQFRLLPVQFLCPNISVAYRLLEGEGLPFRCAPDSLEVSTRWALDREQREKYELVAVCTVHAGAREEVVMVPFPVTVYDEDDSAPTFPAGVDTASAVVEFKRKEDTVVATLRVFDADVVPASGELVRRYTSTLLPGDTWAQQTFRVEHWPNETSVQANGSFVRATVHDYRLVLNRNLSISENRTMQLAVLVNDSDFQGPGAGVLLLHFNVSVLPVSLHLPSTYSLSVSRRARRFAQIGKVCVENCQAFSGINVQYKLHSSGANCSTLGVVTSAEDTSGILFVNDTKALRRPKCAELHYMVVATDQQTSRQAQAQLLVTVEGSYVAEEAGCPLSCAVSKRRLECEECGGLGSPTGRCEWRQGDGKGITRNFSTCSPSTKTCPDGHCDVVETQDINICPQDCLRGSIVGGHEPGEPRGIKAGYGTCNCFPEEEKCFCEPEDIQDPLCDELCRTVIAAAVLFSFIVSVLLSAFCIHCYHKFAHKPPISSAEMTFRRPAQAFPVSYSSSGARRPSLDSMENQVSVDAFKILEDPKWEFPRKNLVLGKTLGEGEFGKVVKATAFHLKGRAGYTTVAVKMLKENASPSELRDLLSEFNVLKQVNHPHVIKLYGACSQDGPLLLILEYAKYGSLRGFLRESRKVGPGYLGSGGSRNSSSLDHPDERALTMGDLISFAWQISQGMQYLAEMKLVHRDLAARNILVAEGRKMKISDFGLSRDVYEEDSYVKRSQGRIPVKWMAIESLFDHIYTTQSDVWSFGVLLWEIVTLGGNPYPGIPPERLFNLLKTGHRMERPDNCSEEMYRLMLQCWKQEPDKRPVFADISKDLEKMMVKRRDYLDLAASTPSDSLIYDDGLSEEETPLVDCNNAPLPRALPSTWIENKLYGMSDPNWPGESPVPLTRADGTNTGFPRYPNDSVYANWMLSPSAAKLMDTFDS
Outline: as §1

kinases [5] = molecular target: T5, kinases (Homo sapiens, UniProt P10721)
T5 construct: purchased Eurofins/DiscoveRx; host or cells: E. coli BL21-derived host (T7 phage display) for most kinases; HEK-293 for the rest
T5 sequence (P10721 26-976): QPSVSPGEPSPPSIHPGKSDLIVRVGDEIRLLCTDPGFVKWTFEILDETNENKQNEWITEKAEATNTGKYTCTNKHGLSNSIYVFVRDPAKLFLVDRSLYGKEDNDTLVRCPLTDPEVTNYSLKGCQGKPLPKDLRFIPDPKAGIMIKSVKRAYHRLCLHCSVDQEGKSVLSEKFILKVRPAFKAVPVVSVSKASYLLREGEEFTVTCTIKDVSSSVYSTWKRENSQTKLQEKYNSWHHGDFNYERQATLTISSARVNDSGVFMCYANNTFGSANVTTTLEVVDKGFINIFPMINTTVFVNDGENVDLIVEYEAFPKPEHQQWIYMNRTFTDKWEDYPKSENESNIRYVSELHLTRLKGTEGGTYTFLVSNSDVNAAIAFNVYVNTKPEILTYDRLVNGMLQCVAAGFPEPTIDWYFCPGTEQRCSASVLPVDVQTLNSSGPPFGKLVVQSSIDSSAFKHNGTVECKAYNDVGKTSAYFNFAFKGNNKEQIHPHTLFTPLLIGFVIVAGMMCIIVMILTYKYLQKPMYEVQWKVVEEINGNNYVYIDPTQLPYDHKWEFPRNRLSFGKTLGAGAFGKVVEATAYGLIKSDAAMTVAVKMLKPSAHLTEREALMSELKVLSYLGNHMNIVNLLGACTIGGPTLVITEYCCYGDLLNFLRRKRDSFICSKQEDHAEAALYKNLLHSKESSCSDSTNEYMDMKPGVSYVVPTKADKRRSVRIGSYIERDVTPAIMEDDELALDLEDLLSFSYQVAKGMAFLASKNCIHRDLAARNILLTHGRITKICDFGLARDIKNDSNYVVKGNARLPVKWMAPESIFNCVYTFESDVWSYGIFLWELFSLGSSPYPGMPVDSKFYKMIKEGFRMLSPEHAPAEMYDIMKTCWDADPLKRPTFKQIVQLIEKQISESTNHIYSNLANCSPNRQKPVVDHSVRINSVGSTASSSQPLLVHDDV
Outline: as §1

kinases [6] = molecular target: T6, kinases (Homo sapiens, UniProt P10721, A829P)
T6 construct: purchased Eurofins/DiscoveRx; host or cells: E. coli BL21-derived host (T7 phage display) for most kinases; HEK-293 for the rest
T6 sequence (P10721 26-976 A829P): as the sequence (P10721 26-976) above, with A804P counted along it
Outline: as §1

kinases [7] = molecular target: T7, kinases (Homo sapiens, UniProt P10721, D816V)
T7 construct: purchased Eurofins/DiscoveRx; host or cells: E. coli BL21-derived host (T7 phage display) for most kinases; HEK-293 for the rest
T7 sequence (P10721 26-976 D816V): as the sequence (P10721 26-976) above, with D791V counted along it
Outline: as §1

kinases [8] = molecular target: T8, kinases (Homo sapiens, UniProt P10721, V559D)
T8 construct: purchased Eurofins/DiscoveRx; host or cells: E. coli BL21-derived host (T7 phage display) for most kinases; HEK-293 for the rest
T8 sequence (P10721 26-976 V559D): as the sequence (P10721 26-976) above, with V534D counted along it
Outline: as §1

kinases [9] = molecular target: T9, kinases (Homo sapiens, UniProt P10721, V559D/V654A)
T9 construct: purchased Eurofins/DiscoveRx; host or cells: E. coli BL21-derived host (T7 phage display) for most kinases; HEK-293 for the rest
T9 sequence (P10721 26-976 V559D/V654A): as the sequence (P10721 26-976) above, with V534D, V629A counted along it
Outline: as §1

kinases [10] = molecular target: T10, kinases (Homo sapiens, UniProt P36888, N841I)
T10 construct: purchased Eurofins/DiscoveRx; host or cells: E. coli BL21-derived host (T7 phage display) for most kinases; HEK-293 for the rest
T10 sequence (P36888 27-993 N841I): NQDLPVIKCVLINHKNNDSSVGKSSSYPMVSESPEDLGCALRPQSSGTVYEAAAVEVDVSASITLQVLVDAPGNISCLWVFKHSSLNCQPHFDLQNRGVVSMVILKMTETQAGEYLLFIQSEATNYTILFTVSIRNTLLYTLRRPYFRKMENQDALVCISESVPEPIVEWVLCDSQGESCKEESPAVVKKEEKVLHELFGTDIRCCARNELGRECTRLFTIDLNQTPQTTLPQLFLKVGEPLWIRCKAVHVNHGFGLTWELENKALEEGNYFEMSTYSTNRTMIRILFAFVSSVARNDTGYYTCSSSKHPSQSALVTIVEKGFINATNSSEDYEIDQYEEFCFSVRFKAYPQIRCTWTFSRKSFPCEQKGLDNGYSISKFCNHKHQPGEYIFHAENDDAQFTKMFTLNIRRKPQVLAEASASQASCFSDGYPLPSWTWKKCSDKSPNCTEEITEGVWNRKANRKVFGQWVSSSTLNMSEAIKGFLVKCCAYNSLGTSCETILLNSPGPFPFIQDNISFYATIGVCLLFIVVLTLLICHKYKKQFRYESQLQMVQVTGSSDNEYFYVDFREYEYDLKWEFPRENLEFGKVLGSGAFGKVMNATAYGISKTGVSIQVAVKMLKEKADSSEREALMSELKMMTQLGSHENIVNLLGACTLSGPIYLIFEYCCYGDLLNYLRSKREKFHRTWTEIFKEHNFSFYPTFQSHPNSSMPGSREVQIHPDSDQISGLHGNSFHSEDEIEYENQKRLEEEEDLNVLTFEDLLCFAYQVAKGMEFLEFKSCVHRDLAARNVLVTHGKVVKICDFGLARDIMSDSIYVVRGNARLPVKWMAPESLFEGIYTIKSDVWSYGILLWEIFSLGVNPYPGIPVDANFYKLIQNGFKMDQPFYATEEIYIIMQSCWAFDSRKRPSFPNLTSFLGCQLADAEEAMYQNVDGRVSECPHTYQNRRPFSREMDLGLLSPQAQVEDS
Outline: as §1

kinases [11] = molecular target: T11, kinases (Homo sapiens, UniProt P42684)
T11 construct: purchased Eurofins/DiscoveRx; host or cells: E. coli BL21-derived host (T7 phage display) for most kinases; HEK-293 for the rest
T11 sequence (P42684 whole entry): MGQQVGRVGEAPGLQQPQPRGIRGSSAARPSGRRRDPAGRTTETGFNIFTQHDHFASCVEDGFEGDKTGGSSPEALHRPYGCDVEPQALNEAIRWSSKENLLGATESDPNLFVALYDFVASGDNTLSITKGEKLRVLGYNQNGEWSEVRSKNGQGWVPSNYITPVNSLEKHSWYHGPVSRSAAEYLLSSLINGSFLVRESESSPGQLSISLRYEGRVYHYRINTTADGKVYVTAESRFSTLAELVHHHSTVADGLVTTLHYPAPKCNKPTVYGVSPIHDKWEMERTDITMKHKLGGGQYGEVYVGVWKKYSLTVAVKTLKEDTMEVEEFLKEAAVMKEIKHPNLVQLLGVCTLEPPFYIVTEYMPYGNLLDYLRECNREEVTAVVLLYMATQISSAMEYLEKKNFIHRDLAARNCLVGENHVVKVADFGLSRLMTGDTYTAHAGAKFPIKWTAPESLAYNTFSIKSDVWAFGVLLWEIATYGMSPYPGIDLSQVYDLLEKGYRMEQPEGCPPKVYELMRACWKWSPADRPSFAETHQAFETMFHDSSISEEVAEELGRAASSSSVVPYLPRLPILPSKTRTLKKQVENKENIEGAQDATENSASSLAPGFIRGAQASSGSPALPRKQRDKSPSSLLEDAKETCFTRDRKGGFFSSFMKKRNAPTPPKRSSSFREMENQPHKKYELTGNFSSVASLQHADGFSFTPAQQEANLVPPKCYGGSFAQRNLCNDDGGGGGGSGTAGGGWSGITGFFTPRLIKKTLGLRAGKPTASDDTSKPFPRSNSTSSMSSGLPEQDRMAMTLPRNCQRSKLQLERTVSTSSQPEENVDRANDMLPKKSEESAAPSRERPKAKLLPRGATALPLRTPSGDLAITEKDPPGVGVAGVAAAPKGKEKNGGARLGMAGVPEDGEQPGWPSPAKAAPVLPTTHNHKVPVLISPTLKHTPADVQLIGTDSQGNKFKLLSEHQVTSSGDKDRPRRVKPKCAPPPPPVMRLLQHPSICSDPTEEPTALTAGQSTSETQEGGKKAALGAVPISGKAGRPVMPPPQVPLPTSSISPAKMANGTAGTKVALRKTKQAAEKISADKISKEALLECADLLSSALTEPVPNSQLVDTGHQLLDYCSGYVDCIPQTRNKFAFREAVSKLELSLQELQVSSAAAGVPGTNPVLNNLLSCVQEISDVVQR
Outline: as §1

% Ctrl, ABL1(F317I)-nonphosphorylated (kinases [1]; ABL1(F317I)-nonphosphorylated) | % Ctrl, ABL1(F317I)-phosphorylated (kinases [1]; ABL1(F317I)-phosphorylated) | % Ctrl, EGFR (kinases [2]; EGFR) | % Ctrl, EGFR(L861Q) (kinases [3]; EGFR(L861Q)) | % Ctrl, RET(V804L) (kinases [4]; RET(V804L)) | % Ctrl, KIT (kinases [5]; KIT) | % Ctrl, KIT-autoinhibited (kinases [5]; KIT-autoinhibited) | % Ctrl, KIT(A829P) (kinases [6]; KIT(A829P)) | % Ctrl, KIT(D816V) (kinases [7]; KIT(D816V)) | % Ctrl, KIT(V559D) (kinases [8]; KIT(V559D)) | % Ctrl, KIT(V559D, V654A) (kinases [9]; KIT(V559D, V654A)) | % Ctrl, FLT3(N841I) (kinases [10]; FLT3(N841I)) | % Ctrl, ABL2 (kinases [11]; ABL2) | also measured | Structure (SMILES)
100 % Ctrl | 64 % Ctrl | 77 % Ctrl | 68 % Ctrl | 87 % Ctrl | 90 % Ctrl | 86 % Ctrl | 99 % Ctrl | 91 % Ctrl | 99 % Ctrl | 91 % Ctrl | 83 % Ctrl | 89 % Ctrl |  | Cc1cc2c([nH]1)/C=C1\C(=O)Nc3ccc(cc31)-c1ccnn1CCOCCNC2=O [Ex.39, [19a(20)Z]-2-methyl-6,7,9,10-tetrahydro-1H-15,17-(ethanediylidene)pyrazolo[1,5-d]dipyrrolo[3,4-h:2′,3′-k][1,4,14]oxadiazacyclohexadecine-4,19(5H,18H)-dione]
93 % Ctrl | 89 % Ctrl | 99 % Ctrl | 97 % Ctrl | 58 % Ctrl | 65 % Ctrl | 75 % Ctrl | 54 % Ctrl | 34 % Ctrl | 47 % Ctrl | 83 % Ctrl | 19 % Ctrl | 96 % Ctrl |  | Cc1cc2c([nH]1)/C=C1\C(=O)Nc3cc(Cl)c(cc31)OCCO[C@@H](C(=O)NC1CNC1)CN(C)C2=O [Ex. 133, [7R,16a(17)Z]-N-(azetidin-3-yl)-19-chloro-2,5-dimethyl-4,16-dioxo-4,5,6,7,9,10,15,16-octahydro-1H-12,14-(ethanediylidene)dipyrrolo[3,2-i:3′,4′-l][1,4,7]dioxazacyclopentadecine-7-carboxamide]
 |  |  |  |  |  |  |  |  |  |  |  |  | % Ctrl, ABL1(F317I)-nonphosphorylated (kinases [1]; target ABL1(F317I)-nonphosphorylated): 46 % Ctrl; % Ctrl, ABL1(F317I)-phosphorylated (kinases [1]; target ABL1(F317I)-phosphorylated): 26 % Ctrl; % Ctrl, EGFR (kinases [2]; target EGFR): 100 % Ctrl; % Ctrl, EGFR(L861Q) (kinases [3]; target EGFR(L861Q)): 100 % Ctrl; % Ctrl, RET(V804L) (kinases [4]; target RET(V804L)): 3.5 % Ctrl; % Ctrl, KIT-autoinhibited (kinases [5]; target KIT-autoinhibited): 40 % Ctrl; % Ctrl, KIT (kinases [5]; target KIT): 9.9 % Ctrl; % Ctrl, KIT(A829P) (kinases [6]; target KIT(A829P)): 51 % Ctrl; % Ctrl, KIT(D816V) (kinases [7]; target KIT(D816V)): 34 % Ctrl; % Ctrl, KIT(V559D) (kinases [8]; target KIT(V559D)): 5.4 % Ctrl; % Ctrl, KIT(V559D, V654A) (kinases [9]; target KIT(V559D, V654A)): 33 % Ctrl; % Ctrl, FLT3(N841I) (kinases [10]; target FLT3(N841I)): 5.5 % Ctrl; % Ctrl, ABL2 (kinases [11]; target ABL2): 40 % Ctrl | CN1CCOCCOc2cc3c(cc2Cl)NC(=O)/C3=C\c2[nH]ccc2C1=O [Ex. 143, [16a(17)Z]-19-chloro-2,5-dimethyl-6,7,9,10-tetrahydro-1H-12,14-(ethanediylidene)dipyrrolo[3,2-i:3′,4′-l][1,4,7]oxathiazacyclopentadecine-4,16(5H,15H)-dione]
